These results are taken from article PMC11606603, “The membrane domains of mammalian adenylyl cyclases are lipid receptors” (eLife, 2024).

In one test the target is T1, mAC5(membr)–AC3(cat) (Homo sapiens, UniProt O60266+O95622).
T1 construct: followed by AC5(1–402)_AC3(250–631)_AC5(761–1009)_AC3(862–1144); made in house; host or cells: HEK293, transfected; membrane preparation
Put plainly: AC assay, Gsα-stimulated chimera mAC5–3 in membranes from transfected HEK293 cells. To be noted: for Effect on Gsα-stimulated mAC5(membr)–AC3(cat) chimera: 300 nM Gsα, 20 µM oleic acid or 100 µM anandamide, in words. In kind it is biochemical. The procedure: (§1) hAC sequences were from NCBI were: ADCY1: NM_021116.3; ADCY2: NM_020546.2; ADCY3: NM_004036.4; ADCY4: NM_001198568.2; ADCY5: NM_183357.2; ADCY6: NM_015270.4; ADCY7: NM_001114.4; ADCY8: NM_001115.2; ADCY9: NM_001116.3. Human mAC genes were from GenScript and fitted with a C-terminal FLAG-tag. […] The gene was synthesized by GenScript. HEK293 cells were maintained in Dulbeccos Modified Eagle Medium (DMEM) with 10% fetal bovine serum at 37°C and 5% CO2. Transfection with AC plasmids was with PolyJet (SignaGen, Frederick, MD, USA). Permanent cell lines were generated by selection for 7 days with 600 µg/ml G418 and maintained with 300 µg/ml For membrane preparation, cells were tyrpsinized, collected by centrifugation (3000 × g, 5 min) and lysed and homogenized in 20 mM HEPES, pH 7.5, 1 mM Ethylenediaminetetraacetic acid (EDTA), 2 mM MgCl2, 1 mM Dithiothreitol (DTT), one tablet of cOmplete, EDTA-free (per 50 ml) and 250 mM sucrose by 20 strokes in a potter homogenizer on ice. Debris was removed (5 min at 1000 × g, 0°C), membranes were collected at 100,000 × g, 60 min at 0°C, suspended and stored at −80°C in 20 mM MOPS, pH 7.5, 0.5 mM EDTA, 2 mM MgCl2. Membrane preparation from mouse brain cortex was according to [Seth et al., 2020]; [Schultz and Schmidt, 1987]. Three cerebral cortices were dissected and homogenized in 4.5 ml cold 48 mM Tris–HCl, pH 7.4, 12 mM MgC1_2, and 0.1 mM Ethylene glycol-bis(β-aminoethyl ether)-N,N,N′,N′-tetraacetic acid (EGTA) with a Polytron hand disperser (Kinematica AG, Switzerland). The homogenate was centrifuged for 15 min at 12,000 × g at 4°C. The pellet was washed once with 5 ml 1 mM KHCO3. The final suspension in 2 ml 1 mM KHCO3 was stored in aliquots at −80°C.
In a volume of 10 μl, AC activities were measured using 1 mM ATP, 2 mM MgCl2, 3 mM creatine phosphate, 60 μg/ml creatine kinase, and 50 mM MOPS pH 7.5. The cAMP assay kit from Cisbio (Codolet, France) was used for detection according to the supplier’s instructions. For each assay, a cAMP standard curve was established. EC50 and IC50 values were calculated by GraphPad Prism version 8.4.3 for Windows, GraphPad Software, San Diego, CA, USA, https://www.graphpad.com .

Test [1] deals with T2, HEK293 cells permanently transfected with mAC5 (Homo sapiens, UniProt O95622).
T2 construct: Human mAC genes were from GenScript and fitted with a C-terminal FLAG-tag; FLAG (C); expressed in transfected cells; host or cells: HEK293, permanently transfected
T2 sequence (O95622 whole entry): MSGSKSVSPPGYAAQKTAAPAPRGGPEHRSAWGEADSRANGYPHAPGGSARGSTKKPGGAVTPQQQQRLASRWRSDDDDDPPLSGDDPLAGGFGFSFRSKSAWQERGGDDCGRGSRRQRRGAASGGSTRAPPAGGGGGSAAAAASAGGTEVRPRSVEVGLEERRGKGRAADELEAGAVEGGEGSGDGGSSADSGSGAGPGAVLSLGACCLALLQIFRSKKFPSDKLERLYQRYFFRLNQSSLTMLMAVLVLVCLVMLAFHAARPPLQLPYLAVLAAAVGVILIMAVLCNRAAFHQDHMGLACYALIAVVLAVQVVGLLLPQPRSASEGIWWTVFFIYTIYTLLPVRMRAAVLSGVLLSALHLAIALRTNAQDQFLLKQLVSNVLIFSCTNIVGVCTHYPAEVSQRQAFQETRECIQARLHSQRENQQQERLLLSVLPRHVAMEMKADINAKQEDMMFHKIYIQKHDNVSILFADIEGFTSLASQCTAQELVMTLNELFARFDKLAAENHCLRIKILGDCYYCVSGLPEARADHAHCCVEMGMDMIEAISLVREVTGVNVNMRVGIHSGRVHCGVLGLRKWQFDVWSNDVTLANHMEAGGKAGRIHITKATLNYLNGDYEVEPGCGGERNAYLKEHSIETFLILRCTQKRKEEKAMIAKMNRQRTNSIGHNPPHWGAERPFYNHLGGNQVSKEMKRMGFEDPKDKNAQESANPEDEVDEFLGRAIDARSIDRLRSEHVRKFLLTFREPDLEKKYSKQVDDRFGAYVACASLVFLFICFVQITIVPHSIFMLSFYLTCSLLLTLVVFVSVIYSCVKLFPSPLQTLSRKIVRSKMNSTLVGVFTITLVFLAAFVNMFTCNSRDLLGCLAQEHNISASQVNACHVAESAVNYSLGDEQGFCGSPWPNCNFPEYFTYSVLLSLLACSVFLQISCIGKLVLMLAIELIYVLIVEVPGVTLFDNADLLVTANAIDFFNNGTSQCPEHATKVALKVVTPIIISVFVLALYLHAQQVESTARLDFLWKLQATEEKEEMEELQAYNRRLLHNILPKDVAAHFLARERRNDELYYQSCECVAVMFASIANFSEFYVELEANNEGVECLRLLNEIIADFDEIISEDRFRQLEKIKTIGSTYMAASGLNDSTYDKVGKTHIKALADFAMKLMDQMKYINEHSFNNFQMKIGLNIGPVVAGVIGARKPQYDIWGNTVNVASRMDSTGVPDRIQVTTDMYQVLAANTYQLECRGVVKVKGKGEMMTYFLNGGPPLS
Put plainly: cAMP accumulation assay, isoproterenol-stimulated HEK-mAC5 cells. In kind it is cell-based. The procedure: as §1
(§2) HEK293 cells stably expressing mAC isoforms 3, 5, and mAC5(membr)_mAC3(cat) were plated at 2500–10,000 cells/well into 384-well plates. […]. Addition of Cisbio HTRF detection reagents stopped the reaction and cAMP levels were determined.

The target in test [2] is T3, HEK293-mAC5(membr)–AC3(cat) cells (Homo sapiens, UniProt O60266+O95622).
T3 construct: followed by AC5(1–402)_AC3(250–631)_AC5(761–1009)_AC3(862–1144); expressed in transfected cells; host or cells: HEK293, stably expressing the chimera
T3 sequence (O95622 1-402): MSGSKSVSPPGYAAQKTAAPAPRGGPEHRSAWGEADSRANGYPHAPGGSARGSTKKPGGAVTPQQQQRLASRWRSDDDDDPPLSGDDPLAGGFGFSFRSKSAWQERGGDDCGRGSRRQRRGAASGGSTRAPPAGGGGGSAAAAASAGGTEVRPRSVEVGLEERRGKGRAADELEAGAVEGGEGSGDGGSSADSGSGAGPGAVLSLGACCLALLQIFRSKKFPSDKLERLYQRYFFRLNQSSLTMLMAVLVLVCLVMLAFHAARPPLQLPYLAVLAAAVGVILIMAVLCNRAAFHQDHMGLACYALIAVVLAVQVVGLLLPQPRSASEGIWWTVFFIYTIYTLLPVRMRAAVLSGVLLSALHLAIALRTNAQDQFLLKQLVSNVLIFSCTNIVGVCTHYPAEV
T3 sequence (O60266 250-631): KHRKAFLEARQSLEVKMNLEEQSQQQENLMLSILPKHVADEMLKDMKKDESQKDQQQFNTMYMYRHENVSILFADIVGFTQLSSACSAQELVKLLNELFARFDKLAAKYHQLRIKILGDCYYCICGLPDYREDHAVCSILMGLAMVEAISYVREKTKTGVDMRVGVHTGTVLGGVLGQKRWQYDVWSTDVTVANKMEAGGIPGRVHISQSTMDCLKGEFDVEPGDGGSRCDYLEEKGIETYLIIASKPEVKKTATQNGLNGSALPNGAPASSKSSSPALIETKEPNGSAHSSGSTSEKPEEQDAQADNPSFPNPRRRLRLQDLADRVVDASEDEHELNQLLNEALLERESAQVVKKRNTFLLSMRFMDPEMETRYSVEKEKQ
T3 sequence (O95622 761-1009): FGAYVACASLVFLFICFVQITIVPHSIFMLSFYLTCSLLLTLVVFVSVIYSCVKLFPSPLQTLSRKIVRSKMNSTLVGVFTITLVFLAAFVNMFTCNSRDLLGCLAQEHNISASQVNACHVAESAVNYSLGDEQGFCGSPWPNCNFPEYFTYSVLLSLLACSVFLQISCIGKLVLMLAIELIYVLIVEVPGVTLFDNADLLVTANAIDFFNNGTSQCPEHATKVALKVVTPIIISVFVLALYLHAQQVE
T3 sequence (O60266 862-1144): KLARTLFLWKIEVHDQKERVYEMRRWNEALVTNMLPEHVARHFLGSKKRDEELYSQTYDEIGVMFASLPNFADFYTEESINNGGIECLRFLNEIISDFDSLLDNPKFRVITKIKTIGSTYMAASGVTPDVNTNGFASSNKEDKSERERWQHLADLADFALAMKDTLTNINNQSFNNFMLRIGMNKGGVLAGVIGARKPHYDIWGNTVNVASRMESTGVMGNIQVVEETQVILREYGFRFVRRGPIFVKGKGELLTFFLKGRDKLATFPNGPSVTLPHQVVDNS
Put plainly: cAMP accumulation assay, isoproterenol-stimulated HEK-mAC5–3 cells. In kind it is cell-based. As for the experimental part: as §1, §2
(In general: Changes in cAMP serve as a functional read-out for many G protein-coupled receptors.)

The next test addresses T4, mAC9 (Homo sapiens, UniProt O60503).
T4 construct: Human mAC genes were from GenScript and fitted with a C-terminal FLAG-tag; FLAG (C); made in house; host or cells: HEK293, permanently transfected; membrane preparation
Description: AC assay, Gsα-stimulated mAC9 in membranes from transfected HEK293 cells. In kind it is biochemical. The gist of the method: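 cAMP detected with a Cisbio kit, calibrated by a cAMP standard curve each run. Reaction: 1 mM ATP, 2 mM MgCl2, 3 mM creatine phosphate, 60 μg/ml creatine kinase, 50 mM MOPS pH 7.5. Enzyme source: membranes of stably transfected HEK293 (G418-selected) carrying FLAG-tagged human AC.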

Where [3] appears, read: 20 µM fatty acid, 300 nM Gsα, single experiments.

“And” between values parts separate entries of the source, which are not always exact repeats. Identical values can stand only once. Like-named read-outs stand apart in the source and are kept apart here.

T1 sequence (O95622 1-402): as the sequence (O95622 1-402) above
T1 sequence (O60266 250-631): as the sequence (O60266 250-631) above
T1 sequence (O95622 761-1009): as the sequence (O95622 761-1009) above
T1 sequence (O60266 862-1144): as the sequence (O60266 862-1144) above
T4 sequence (O60503 whole entry): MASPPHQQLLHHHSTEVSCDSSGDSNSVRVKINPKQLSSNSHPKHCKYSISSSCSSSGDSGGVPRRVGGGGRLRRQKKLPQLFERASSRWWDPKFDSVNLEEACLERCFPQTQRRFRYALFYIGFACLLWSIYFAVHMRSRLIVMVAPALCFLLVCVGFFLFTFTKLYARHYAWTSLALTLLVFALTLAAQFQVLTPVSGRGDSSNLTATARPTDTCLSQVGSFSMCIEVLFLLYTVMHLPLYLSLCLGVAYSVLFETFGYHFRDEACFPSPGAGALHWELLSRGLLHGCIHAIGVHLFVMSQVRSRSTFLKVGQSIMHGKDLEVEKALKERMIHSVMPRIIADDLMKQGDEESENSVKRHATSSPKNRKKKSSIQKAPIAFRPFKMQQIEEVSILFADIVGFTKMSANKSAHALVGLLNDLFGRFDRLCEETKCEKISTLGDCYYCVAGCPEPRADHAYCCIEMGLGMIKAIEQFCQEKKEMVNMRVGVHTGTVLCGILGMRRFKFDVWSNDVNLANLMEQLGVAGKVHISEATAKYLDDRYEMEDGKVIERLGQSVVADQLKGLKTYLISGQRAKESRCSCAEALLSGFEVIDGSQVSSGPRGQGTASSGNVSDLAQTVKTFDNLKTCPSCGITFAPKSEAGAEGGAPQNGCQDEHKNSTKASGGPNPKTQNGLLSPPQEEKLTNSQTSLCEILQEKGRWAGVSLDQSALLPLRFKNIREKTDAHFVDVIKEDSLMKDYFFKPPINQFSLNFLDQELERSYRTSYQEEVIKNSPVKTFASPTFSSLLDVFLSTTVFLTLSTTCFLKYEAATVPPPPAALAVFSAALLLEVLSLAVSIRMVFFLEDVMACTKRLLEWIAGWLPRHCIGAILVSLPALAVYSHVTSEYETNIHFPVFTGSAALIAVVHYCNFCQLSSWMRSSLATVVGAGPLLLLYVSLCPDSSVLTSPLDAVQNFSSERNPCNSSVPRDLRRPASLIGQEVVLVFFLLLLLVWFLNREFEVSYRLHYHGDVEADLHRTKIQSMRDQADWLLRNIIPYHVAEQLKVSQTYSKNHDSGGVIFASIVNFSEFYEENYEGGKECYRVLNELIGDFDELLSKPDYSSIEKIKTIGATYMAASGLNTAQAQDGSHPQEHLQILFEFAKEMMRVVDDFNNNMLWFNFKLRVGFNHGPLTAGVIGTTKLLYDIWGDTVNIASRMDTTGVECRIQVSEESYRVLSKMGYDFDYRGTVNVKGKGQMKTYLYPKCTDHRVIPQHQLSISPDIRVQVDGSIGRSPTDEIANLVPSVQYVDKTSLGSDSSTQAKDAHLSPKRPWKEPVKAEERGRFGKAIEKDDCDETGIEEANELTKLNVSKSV
T4 sequence (P63092 2-394 Q227L partner): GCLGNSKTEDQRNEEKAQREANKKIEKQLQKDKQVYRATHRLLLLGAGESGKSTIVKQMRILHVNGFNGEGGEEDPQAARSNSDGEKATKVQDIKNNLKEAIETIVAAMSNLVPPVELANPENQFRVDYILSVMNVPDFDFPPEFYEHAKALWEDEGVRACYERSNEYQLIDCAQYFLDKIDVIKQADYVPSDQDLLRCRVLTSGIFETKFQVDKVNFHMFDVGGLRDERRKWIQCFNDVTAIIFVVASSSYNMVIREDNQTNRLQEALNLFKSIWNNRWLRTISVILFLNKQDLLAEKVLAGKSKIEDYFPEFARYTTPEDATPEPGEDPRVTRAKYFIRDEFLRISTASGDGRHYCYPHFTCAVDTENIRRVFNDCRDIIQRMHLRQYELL

For orientation: IC50 means the concentration that inhibits the measured activity by half. Lower therefore signals higher potency. For `CCCCC/C=C\C/C=C\C/C=C\C/C=C\CCCC(=O)NCCO` [Anandamide, arachidonoylethanolamide], the “Effect on Gsα-stimulated mAC5(membr)–AC3(cat) chimera” value on mAC5(membr)–AC3(cat) is recorded as “attenuated”. Besides, the IC50 at mAC5(membr)–AC3(cat) (attenuation of 300 nM Gsα-stimulated activity) was found to be 29 µM; in test [1] (2.5 µM isoproterenol), 133 µM; in test [2] (2.5 µM isoproterenol, +0.5 mM IBMX), 60 µM. The “activity [%] (100% = 300nM Gsα stimulation)” value at mAC5(membr)–AC3(cat) (mAC 5-3, 100µM Anandamide concentration, Figure 9 D) is 41% and 69% and 72% and 65% and 48% and 42%; at mAC5(membr)–AC3(cat) (mAC5-3, Anandamide 0.1 µM), 100%; on mAC5(membr)–AC3(cat) (mAC5-3, Anandamide 1 µM) it was 126% and 93% and 106% and 127% and 130% and 123%; on mAC5(membr)–AC3(cat) (mAC5-3, Anandamide 3 µM), 121% and 102% and 118% and 146% and 144% and 129%; on mAC5(membr)–AC3(cat) (mAC5-3, Anandamide 10 µM), 109% and 100% and 102% and 111% and 132% and 115%; at mAC5(membr)–AC3(cat) (mAC5-3, Anandamide 30 µM), 77% and 70% and 88% and 68% and 74%. In addition, the “activity [%] (100% = 300nM Gsα stimulation)” value on mAC5(membr)–AC3(cat) (mAC5-3, Anandamide 100 µM) is 72% and 65% and 48% and 42% and 41% and 69%. Further, the “attenuation of cAMP formation in HEK293-mAC5 cells” value in test [1] (100 µM anandamide, 2.5 µM isoproterenol) came to 23%. The “HEK-mAC activity (%); 100%= 2.5µM Isoproterenol stimulation, HEK-mAC5” value in test [1] (Anandamide 1 µM) was 110% and 105% and 81% and 111% and 118% and 98% and 96% and 86%; in test [1] (Anandamide 3 µM), 110% and 102% and 93% and 132%; in test [1] (Anandamide 10 µM) it was 108% and 103% and 116% and 87% and 120% and 105% and 102%; in test [1] (Anandamide 30 µM), 98% and 88% and 95% and 102%; in test [1] (Anandamide 60 µM), 95% and 75% and 88% and 93% and 110%; in test [1] (Anandamide 100 µM) it was 79% and 86% and 94% and 77% and 62% and 71%. Moreover, the activity at 0.1 µM was determined as 100% in test [1] (HEK293, read-out: HEK-mAC activity (%), 100%= 2.5µM Isoproterenol stimulation, HEK-mAC5, Anandamide 0.1 µM) and 100% in test [2] (read-out: HEK-mAC activity (%), 100%= 2.5µM Isoproterenol stimulation, HEK-mAC5-3, Anandamide 0.1 µM). In addition, the activity at 30 µM in test [1] (HEK293, read-out: HEK-mAC activity (%), 100%= 2.5µM Isoproterenol stimulation, HEK-mAC5, Anandamide 30 µM) stood at 100%. Besides, the “Effect on basal activity of HEK-mAC5” value in test [1] (up to 100 µM, data not shown, in words) was “no effect”. For the same molecule, in test [2] (2.5 µM isoproterenol), the “attenuation of cAMP formation in HEK293-mAC5(membr)–AC3(cat) cells” value stood at 66%. Further, in test [2] (read-out: HEK-mAC activity (%), 100%= 2.5µM Isoproterenol stimulation, HEK-mAC5-3, Anandamide 100 µM), the activity at 100 µM turned out to be 41%.
One may read the EC50 as the concentration giving half of the maximal effect. For the molecule `CCCCCCCC/C=C\CCCCCCCC(=O)O` [Oleic acid, Oleic ((9Z)-octadecenoic) acid], at mAC5(membr)–AC3(cat), the “Effect on Gsα-stimulated mAC5(membr)–AC3(cat) chimera” value is on record as “not enhanced”. On mAC9 (20 µM, in words), the “Effect of lipid on 300 nM Gsα-stimulated mAC9” value is recorded as “significantly enhanced”. The “mAC9 activity [%] (100% = 300nM Gsα stimulation)” value at mAC9 (Figure 5 B, oleic acid 0.3 µM) was determined as 100%. The EC50 at mAC9 (enhancement of 300 nM Gsα-stimulated activity, read-out: EC50 for mAC9) was determined as 7.8 µM. Further, the “Effect on isoproterenol-stimulated cAMP formation in HEK-mAC5” value in test [1] (2.5 µM isoproterenol, in words) is given as “unaffected”. Besides, the “AC activity (%); 100%= 2.5µM Isoproterenol stimulation” value in test [1] (HEK-mAC5, oleic acid 20 µM) was 107% and 100% and 135%. In addition, the “Effect on cAMP formation in HEK293-mAC5(membr)–AC3(cat) cells” value in test [2] (in words, data not shown) is listed as “ineffective”.
Take `CCCCC/C=C\C/C=C\C/C=C\C/C=C\CCCC(=O)O` [Arachidonic acid, Arachidonic ((5Z,8Z,11Z,14Z)-eicosatetraenoic) acid]: the EC50 at mAC9 was found to be 7.5 µM. For the same molecule, the “mAC9 activity (%);(100% = Gsα stimulation) stimulated by 300nM Gsα” value at mAC9 (1 µM fatty acid, 300 nM Gsα, single experiments) is 99% and 60% and 111% and 93%. At mAC9 (setting [3]), the “mAC9 activity (%);(100% = Gsα stimulation) stimulated by 300nM Gsα” value is 234% and 150% and 190% and 172% and 188% and 135%; the “mAC9 activity [%] (100% = 300nM Gsα stimulation); 20µM fatty acid concentration” value was 172% and 188% and 135% and 234% and 150% and 190%.
